Earlier results, collected in patent US20100099776A1, “OILY SUSPENSION OF ATOVAQUONE” (RANBAXY LABORATORIES LIMITED, priority 2008, published 2010).

Details: single oral dose

dose above which absorption is dose-limited: above 750 mg
increase of absorption by the presence of fatty food (with fatty food): about three-fold
Structure (SMILES): O=C1C(O)=C([C@H]2CC[C@H](c3ccc(Cl)cc3)CC2)C(=O)c2ccccc21 [Atovaquone, 244-(4-chlorophenyl)cyclohexyl′-3-hydroxy-1,4-naphthoquinone]
